In patent US5827890A, “Succinamide derivatives, processes for their preparation and their use as gelatinase and collagenase inhibitors” (Celltech Therapeutics Ltd., priority 1993, dated 1998):
pKi: −log10 of the molar value.

How the values were obtained:
gelatinase A (72 K form) = assay: Pleural cavity assay, oral activity in mice (injected gelatinase A and radiolabelled [14C]-gelatin); format: in vivo; conditions: for inhibition (comparative experiment): each compound administered at the same dose (dose not stated)
Protocol: The oral activity of the compounds according to the invention may be determined using the pleural cavity assay described below.
A […] solution of the test compound in an appropriate solvent (e.g. 50% polyethylene glycol (PG) plus a variable proportion of dimethyl sulphoxide (DMSO) (if required) is administered orally. After an interval of up to 24 hrs, 0.4 ml of a mixture of an equal volume (2.2 ml) of the enzyme gelatinase A (72 K form at a concentration of 20 nM) and radiolabelled [^14 C]-gelatin (at an approximate concentration of 10 μM i.e. 500 times molar excess) is injected into the pleural cavity and maintained at […]. After 35 min mice are overdosed with anaesthetic, the contents of the pleural cavity aspirated and the aspirates cleared by centrifugation at 4° C. then diluted to 15% in trichloroacetic acid (TCA) and left overnight at 4° C. The resulting TCA precipitate is then separated by centrifugation and radioactivity in each supernatant measured by scintillation counting. Results are expressed as a % inhibition of enzyme activity calculated by comparing the radioactivity measured for each test compound with a control value obtained by performing the same assay in the absence of a gelatinase inhibitor.
A comparative experiment was carried out using the same procedure and the compound of Example 1 [A] and the amides [B], [C] and [D] (prepared in a similar fashion to the compound of Example 1): [drawing 19]

Gelatinase 72KD = target: T1, Gelatinase 72KD (Homo sapiens, UniProt P08253); assay: Enzyme assay to determine Ki values, peptide substrate Dnp-Pro-Leu-Gly-Leu-Trp-Ala-D-Arg-NH2 (gelatinase 72KD); format: biochemical; conditions: for pKi: incubated overnight, pH 7.5, true Ki from plot of Ki (app) vs. [S]
T1 sequence (P08253 110-660): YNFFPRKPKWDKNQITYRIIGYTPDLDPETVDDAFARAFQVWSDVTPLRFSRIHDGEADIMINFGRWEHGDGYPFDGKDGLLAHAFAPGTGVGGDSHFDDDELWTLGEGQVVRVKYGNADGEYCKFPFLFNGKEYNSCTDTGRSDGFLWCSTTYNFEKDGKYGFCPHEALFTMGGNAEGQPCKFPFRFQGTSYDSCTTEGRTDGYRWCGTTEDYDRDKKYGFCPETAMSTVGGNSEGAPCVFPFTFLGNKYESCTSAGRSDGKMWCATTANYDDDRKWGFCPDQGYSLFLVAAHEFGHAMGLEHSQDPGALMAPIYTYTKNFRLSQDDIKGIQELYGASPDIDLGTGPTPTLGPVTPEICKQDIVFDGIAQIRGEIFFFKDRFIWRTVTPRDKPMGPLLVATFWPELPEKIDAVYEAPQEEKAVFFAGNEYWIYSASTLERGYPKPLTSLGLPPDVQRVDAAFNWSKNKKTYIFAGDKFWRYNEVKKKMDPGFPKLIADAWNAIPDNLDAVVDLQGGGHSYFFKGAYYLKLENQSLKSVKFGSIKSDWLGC
Protocol: (§1) The activity of the compounds of the invention may be determined as described below.
(§2) All enzyme assays to determine Ki values were performed using the peptide substrate Dnp-Pro-Leu-Gly-Leu-Trp-Ala-D-Arg-NH2. [M. Sharon Stock and Robert D. Gray. JBC 264, 4277-81, 1989). The enzymes cleave at the Gly-Leu bond which can be followed fluorimetrically by measuring the increase in Trp fluorescence emission associated with the removal of the quenching dinitrophenol (Dnp) group.
(§3) Brij 35 at either room temperature or 37° C. depending on the enzyme. The reaction is stopped by adjusting the pH to 4 using 0.1M sodium acetate buffer and the fluorescence read at an excitation wavelength of 280 nm and emission wavelength of 346 nm.
(§4) Ki values can be established using the equation for tight-binding inhibition: [formula] where Vo is the initial rate of reaction in the absence of inhibitor, Vi is the initial rate in the presence of inhibitor, [E] is the total enzyme concentration and [I] the total inhibitor concentration in the reaction mixture.
(§5) For stromelysin and collagenase, Ki (app) was assumed to approximate to the true Ki as [S]<<Km for the substrate hydrolysis. For gelatinase the Ki was determined by performing the analyses at several substrate concentrations. A plot of Ki (app) vs. [S] then gave the true Ki as the value of the y-axis intercept.

Collagenase = target: T2, Collagenase (Homo sapiens, UniProt P03956); assay: Enzyme assay to determine Ki values, peptide substrate Dnp-Pro-Leu-Gly-Leu-Trp-Ala-D-Arg-NH2 (collagenase); format: biochemical; conditions: for pKi: incubated overnight, pH 7.5, Ki (app) assumed to approximate true Ki
T2 sequence (P03956 100-469): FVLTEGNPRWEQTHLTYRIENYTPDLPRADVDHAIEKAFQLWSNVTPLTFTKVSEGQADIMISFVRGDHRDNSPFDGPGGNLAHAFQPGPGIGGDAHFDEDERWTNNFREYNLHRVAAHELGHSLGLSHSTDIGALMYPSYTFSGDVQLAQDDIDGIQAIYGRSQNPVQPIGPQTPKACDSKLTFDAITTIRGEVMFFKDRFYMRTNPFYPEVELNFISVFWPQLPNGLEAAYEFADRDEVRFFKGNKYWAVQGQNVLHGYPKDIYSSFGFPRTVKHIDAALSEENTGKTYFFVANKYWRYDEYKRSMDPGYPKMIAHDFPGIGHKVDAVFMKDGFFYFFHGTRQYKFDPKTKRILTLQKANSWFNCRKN
Protocol: as §1, §2, §3, §4, §5

Stromelysin-1 = Stromelysin-1 (Homo sapiens, UniProt P08254); assay: Enzyme assay to determine Ki values, peptide substrate Dnp-Pro-Leu-Gly-Leu-Trp-Ala-D-Arg-NH2 (stromelysin-1); format: biochemical; conditions: incubated overnight, pH 7.5; Ki (app) assumed to approximate true Ki
Chain of Stromelysin-1 (P08254 100-477): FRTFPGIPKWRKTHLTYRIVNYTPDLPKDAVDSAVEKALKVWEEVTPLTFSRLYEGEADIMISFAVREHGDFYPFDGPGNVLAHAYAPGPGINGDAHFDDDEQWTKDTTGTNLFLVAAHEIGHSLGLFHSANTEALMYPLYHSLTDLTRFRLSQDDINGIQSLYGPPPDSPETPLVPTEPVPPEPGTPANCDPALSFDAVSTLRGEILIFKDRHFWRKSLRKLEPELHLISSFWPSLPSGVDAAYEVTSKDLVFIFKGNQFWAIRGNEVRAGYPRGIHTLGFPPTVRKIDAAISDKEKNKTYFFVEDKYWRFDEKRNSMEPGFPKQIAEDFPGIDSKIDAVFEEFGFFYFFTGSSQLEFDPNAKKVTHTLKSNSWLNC
Protocol: as §1, §2, §3, §4, §5

[1] = test system: vascularisation of sponge implants; assay: Inhibition of angiogenesis: vascularisation of sponge implants in mice, xenon clearance; format: in vivo; conditions: oral, twice per day, 100 mg/kg in PG vehicle, beginning 8 h after sponge implantation
Protocol: Compounds were assessed by their ability to inhibit vascularisation of sponge implants in mice. The amount of vascularisation in this model is determined by the rate of clearance of radioactive xenon from the sponge. Compounds in polyethylene glycol (PG) vehicle were orally administered twice per day at a dose of 100 mg/kg, with administration beginning 8 h after sponge implementation.
FIG. 1 illustrates the result of one experiment using the compound of Example 1. For comparative purposes the following compound (Compound [E]) was used: [drawing 20] (prepared as described in International Patent Application No. PCT/GB 94/00896).
The results are expressed in FIG. 1 as a graph of xenon clearance (expressed as a clearance constant) against time.

[2] = relative to the compound of Example 1

Row | pKi (Stromelysin-1) | pKi (Gelatinase 72KD) | pKi (Collagenase) | Structure (SMILES) | inhibition (comparative experiment) (gelatinase A (72 K form)) [%] | % Inhibition of enzyme activity (gelatinase A (72 K form); at 10 mg/Kg) [%] | also measured
1 |  |  |  | CC(C)[C@H](NC(=O)[C@H](CCCc1ccc(Cl)cc1)CC(=O)NO)C(N)=O [Compound [B], reference compound] | 53 |  | 
2 |  |  |  | CC(C)C[C@H](NC(=O)[C@H](CCCc1ccc(Cl)cc1)CC(=O)NO)C(N)=O [Compound [C], reference compound] | 25 |  | 
3 |  |  |  | CCNC(=O)[C@@H](NC(=O)[C@H](CCCc1ccc(Cl)cc1)CC(=O)NO)C(C)(C)C [Compound [D], reference compound] | 11 |  | 
4 |  |  |  | CNC(=O)[C@@H](NC(=O)[C@@H](CC(=O)NO)CC(C)C)C(C)(C)SC [Compound [E], reference compound] |  |  | fold less potent on gelatinase than the compound of Example 1 (Gelatinase 72KD; [2]): approximately 40 fold; fold more potent on collagenase than the compound of Example 1 (Collagenase; [2]): approximately 40 fold
5 | 7.96 | 10.15 | 6.91 | CC(C)(C)[C@H](NC(=O)[C@H](CCCc1ccc(Cl)cc1)CC(=O)NO)C(N)=O [Example 1, N^4 Hydroxy-N^1-(1-(S)-carbamoyl-2.2-dimethylpropyl)-2-(R)-4(chlorophenylpropyl)succinamide] | 100 | 100 | inhibition of vascularisation / xenon clearance (FIG. 1) [1]: substantial inhibition of vascularisation as seen by the marked inhibition of xenon clearance, which was much greater than the inhibition achieved by the non-specific metalloproteinase inhibitor Compound [E]
6 |  |  |  | CC(C)(C)[C@H](NC(=O)[C@H](CCCc1ccccc1)CC(=O)NO)C(N)=O [Example 2, N^4 -Hydroxy-N^1-(1-(S)-carbamoyl-2.2-dimethylpropyl)-2-(R)-(phenylpropyl)succinamide] |  | 73 | 
7 | 7.99 | 10.38 | 6.31 | Cc1ccc(CCC[C@H](CC(=O)NO)C(=O)N[C@H](C(N)=O)C(C)(C)C)cc1 [Example 3, N^4 Hydroxy-N^1-(1-(S)-carbamoyl-2.2-dimethylpropyl)-2-(R)-(4-methylphenylpropyl)succinamide] |  | 95 | 
8 |  | 10.64 |  | COc1ccc(CCC[C@H](CC(=O)NO)C(=O)N[C@H](C(N)=O)C(C)(C)C)cc1 [Example 4, N^4 -Hydroxy-N^1-(1-(S)-carbamoyl-2.2-dimethylpropyl)-2-(R)-(4-methoxyphenylpropyl)succinamide] |  | 82 | 
9 | 8.58 |  | 7.65 | CNC(=O)[C@@H](NC(=O)[C@H](CCCc1ccc(Cl)cc1)CC(=O)NO)C(C)(C)C [Example 5, N^4 -Hydroxy-N^1-(1-(S)-methylaminocarbonyl-2.2-dimethylpropyl)-2-(R)-(4-chlorophenylpropyl)succinamide] |  | 64 | 
10 |  | 9.68 |  | CC(C)(C)[C@H](NC(=O)[C@H](CCCc1ccc(F)cc1)CC(=O)NO)C(N)=O [Example 6, N^4 -Hydroxy-N^1-(1-(S)-carbamoyl-2.2-dimethylpropyl)-2-(R)-(4-fluorophenylpropyl)succinamide] |  | 76 | 
11 | 8.00 | 10.64 | 7.07 | CNC(=O)[C@@H](NC(=O)[C@H](CCCc1ccc(C)cc1)CC(=O)NO)C(C)(C)C [Example 7, N^4 -Hydroxy-N^1-(1-(S)-methylaminocarbonyl-2.2-dimethylpropyl)-2-(R)-(4-methylphenylpropyl)succinamide] |  |  | % Inhibition of enzyme activity (gelatinase A (72 K form); at 80 mg/Kg): 100%
